SMILES strings stand for the structures. Numbers after ± are expanded uncertainties.

Data on three molecules can be found in the NIST ThermoML archive (doi:10.1016/j.fluid.2004.02.021).

The conditions of the data set: Liquid.

As to `ClC(Cl)C(Cl)Cl` [1,1,2,2-tetrachloroethane], the “vapor or sublimation pressure” value reads like this: (283.15 K) 0.263 ± 0.008 kPa; (288.15 K) 0.373 ± 0.01 kPa; (293.15 K) 0.521 ± 0.013 kPa; (298.15 K) 0.711 ± 0.017 kPa; (303.15 K) 0.98 ± 0.022 kPa; (308.15 K) 1.289 ± 0.028 kPa. For the same molecule, the “vapor or sublimation pressure” value runs as follows: (313.15 K) 1.701 ± 0.027 kPa; (318.15 K) 2.236 ± 0.029 kPa; (323.15 K) 2.86 ± 0.032 kPa.
With `c1ccccc1` [benzene], the “vapor or sublimation pressure” value reads like this: (283.15 K) 6.078 ± 0.045 kPa; (288.15 K) 7.849 ± 0.052 kPa; (293.15 K) 10.03 ± 0.061 kPa; (298.15 K) 12.69 ± 0.072 kPa; (303.15 K) 15.93 ± 0.085 kPa; (308.15 K) 19.81 ± 0.1 kPa. In addition, the “vapor or sublimation pressure” value (313.15 K) is on record as 24.4 ± 0.12 kPa, the “vapor or sublimation pressure” value (318.15 K) is recorded as 29.85 ± 0.14 kPa and the “vapor or sublimation pressure” value (323.15 K) came out at 36.24 ± 0.17 kPa.
Turning to `ClC(Cl)=C(Cl)Cl` [tetrachloroethene], the “vapor or sublimation pressure” value is, setting by setting: (283.15 K) 1.023 ± 0.023 kPa; (288.15 K) 1.4 ± 0.026 kPa; (293.15 K) 1.861 ± 0.028 kPa; (298.15 K) 2.462 ± 0.03 kPa; (303.15 K) 3.205 ± 0.033 kPa; (308.15 K) 4.117 ± 0.037 kPa. In addition, the “vapor or sublimation pressure” value reads like this: (313.15 K) 5.253 ± 0.041 kPa; (318.15 K) 6.621 ± 0.047 kPa; (323.15 K) 8.286 ± 0.054 kPa.

In general, vapor or sublimation pressure refers to the pressure of vapour in equilibrium with the condensed phase.
